Measurements reported in US5714508A, “Bicycle Derivatives of imidazole” (Roussel Uclaf, priority 1993, dated 1998).

Tests used:
angiotensin II = assay: Test of the antagonistic activity of angiotensin II in a demedullated rat (diastolic arterial pressure); format: in vivo, Male Sprague Dawley rats; details: iv, venous route, injected 5 minutes before angiotensin II (0.75 micrograms/kg), pressure effects, read-out: 50% Inhibitory Doses
Description: 2--Test of the antagonistic activity of angiotensin II in a demedullated rat
Male Sprague Dawley rats weighing 250 to 350 g were anaesthetized by an intraperitoneal injection of sodium pentobarbital (60 mg/kg). The diastolic arterial pressure was recorded with a heparinated catheter (PE50) introduced into the left carotid of the animal and connected to a pressure processor (Gould, Pressure Processor) via a Gould pressure sensor. A catheter was introduced into the right jugular of the animal for the injection of the molecules to be studied. The animal was placed under assisted respiration and a bilateral section of the vagus nerves was carried out. The rat was then demedullated.
After a sufficient period of stabilization, study of the antagonism of the compound vis-a-vis angiotensin II (Hypertensin Ciba) was started in the following way.
1--Three consecutive injections of angiotensin II (0.75 micrograms/kg) spaced 15 minutes apart which allowed a reproducible and stable pressure response to be obtained. […]
The pressure effects of the angiotensin II in the presence of the antagonist were expressed as a percentage of the pressure effects of the angiotensin II administered alone. The 50% inhibitory dose of the studied effect was thus determined. […]

angiotensin II receptor = target: T1, angiotensin II receptor (Rattus norvegicus, UniProt P25095); assay: Test on the angiotensin II receptor (displacement of 125I angiotensin II from rat liver membranes); format: binding; details: rat liver membrane preparation, 25° C., 150 minutes, Tris buffer pH 7.4, read-out: IC50 in Nanomoles
T1 construct: A fresh membrane preparation obtained from rat's liver was used; from tissue; host or cells: rat liver membranes
T1 sequence (P25095 1-359): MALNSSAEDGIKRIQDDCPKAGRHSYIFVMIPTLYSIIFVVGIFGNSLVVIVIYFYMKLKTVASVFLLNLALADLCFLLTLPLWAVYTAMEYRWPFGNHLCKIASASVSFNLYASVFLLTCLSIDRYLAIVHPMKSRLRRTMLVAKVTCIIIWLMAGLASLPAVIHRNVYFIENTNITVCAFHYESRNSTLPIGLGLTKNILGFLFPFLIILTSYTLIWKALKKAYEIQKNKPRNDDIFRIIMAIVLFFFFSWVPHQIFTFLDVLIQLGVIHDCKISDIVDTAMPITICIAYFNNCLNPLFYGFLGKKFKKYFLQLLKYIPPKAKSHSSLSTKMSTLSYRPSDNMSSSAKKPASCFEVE
Description: 1--Test on the angiotensin II receptor
A fresh membrane preparation obtained from rat's liver was used and the tissue was ground up in a polytron in a 50 mM Tris buffer pH 7.4. The grinding process was followed by 3 centrifugations at 30,000 g for 15 minutes with intermediate taking up of the pellets in the Tris buffer pH 7.4. The last pellets were suspended in an incubation buffer (20 mM Tris, 135 mM NaCl, 10 mM KCl, 5 mM glucose, 10 mM MgCl2, 0.3 mM PMSF, 0.1 mM bacitracin, 0.2% BSA. 2 ml aliquoted fractions were distributed in hemolysis tubes and 125I angiotensin II (25,000 DPM/tube) and the product under test were added. The product was first tested at 3×10^-5 M three times. When the product tested displaced more than 50% of the radioactivity linked specifically to the receptor, it was tested again in a range of 7 concentrations to determine the concentration which inhibited 50% of the radioactivity linked specifically to the receptor. In this way, the 50% inhibiting concentration was determined.
The non-specific bond was determined by the addition of a product of Example 94 of European Patent No. 0,253,310 at 10^-5 M (three times). After incubation at 25° C. for 150 minutes, the suspension was put in a water-bath at 0° C. for 5 minutes, filtered under vacuum, rinsed with a Tris pH 7.4 buffer and the radioactivity was counted in the presence of scintillating Triton. The result was expressed directly as a 50% inhibiting concentration (IC50), that is to say the concentration of product studied, expressed in […], necessary to displace 50% of the specific radioactivity fixed to the receptor studied.

| Compound | ED50 (angiotensin II) [mg/kg] | IC50 (angiotensin II receptor) [nM] |
| --- | --- | --- |
| CCCCc1nc2c(n1Cc1ccc(-c3ccccc3S(=O)(=O)NC(=O)NCCC)cc1)C(=O)CCS2 [Example 3, 4'-[(2-butyl-6,7-dihydro-7-oxo-thiopyrano-(2,3-d)imidazol-1-(5H)-yl)-methyl]-N-[(propylamino)-carbonyl]-(1,1,'-biphenyl)-2-sulfonamide] | 0.08 | 1.3 |
| CCCCc1nc2c(n1Cc1ccc(-c3ccccc3S(=O)(=O)NC(=O)OCC)cc1)C(=O)CCS2 [Example 4] | 0.09 | 0.2 |
| CCCCc1nc2c(n1Cc1ccc(-c3ccccc3S(=O)(=O)NC(=O)NCCC)cc1)C(=NO)CCS2 [Example 7, 4'-[(2-butyl-7-(hydroxyimino)-1,5,6,7-tetrahydro-thiopyrano[2,3-d)-imidazol-1-yl)-methyl]-N-[(propylamino)-carbonyl]-(1,1'-biphenyl)-2-sulfonamide] |  | 5.3 |
